In patent US4588817A, “Antibiotic nodusmicins” (priority 1984, dated 1986):
Converted amounts (≈) assume the structure as drawn. Like-named read-outs stand apart in the source and are kept apart here.

How the values were obtained:
S. aureus UC 80 = test: agar diffusion (dipped disc) assay, zone of inhibition, S. aureus UC 80; settings: 1 mg./ml. methanolic solution, 12.7 mm paper disc, 16 hours; NZ = no zone
S. lutea UC-130 = test: agar diffusion (dipped disc) assay, zone of inhibition, S. lutea UC-130; settings: for zone of inhibition at 1000 µg/mL: Micrococcus luteus
S. aureus UC-746 = test: MIC, microplate broth-dilution, S. aureus UC-746; settings: Resistant to tetracycline; BHI broth
S. aureus UC-570 = test: MIC, microplate broth-dilution, S. aureus UC-570; settings: Sensitive strain; BHI broth
S. aureus UC-76 = test: MIC, microplate broth-dilution, S. aureus UC-76; settings: Sensitive strain; BHI broth
[1] = solubility remark in the MIC test; settings: in place of MIC values

Compound	Agar Diffusion S. aureus UC 80 (inhibition zone) (S. aureus UC 80)	MIC S. aureus UC-76 (S. aureus UC-76)	insoluble [1]	also measured
9-O--3-Furoyl- [U-61,461]	35	0.50 µg/mL	–	Agar Diffusion S. lutea UC-130 (inhibition zone) (S. lutea UC-130; 1 mg./ml. methanolic solution, 12.7 mm paper disc, 16 hours, NZ = no zone): 41; MIC S. aureus UC-746 (S. aureus UC-746): 0.50 µg/mL; MIC S. aureus UC-570 (S. aureus UC-570): 0.25 µg/mL
COC1CC2C=CC3C4OC2(C(C)=CC(C)C(C(C)O)OC1=O)C3C(O)C(C)C4OC(=O)c1ccc[nH]1 (stereo not drawn) [U-59,760, 9-O-pyrrole-2-carbonyl ester of nodusmicin, reference compound]	38	0.125 µg/mL (≈ 0.242 µM)	–	–
COC1CC2C=CC3C4OC2(C(C)=CC(C)C(C(C)O)OC1=O)C3C(O)C(C)C4OC(=O)c1ccccc1 (stereo not drawn) [9-O--benzoyl-, 9-O-benzoyl-nodusmicin]	–	–	insoluble	–
COC1CC2C=CC3C4OC2(C(C)=CC(C)C(C(C)OC(=O)c2ccc[nH]2)OC1=O)C3C(O)C(C)C4OC(=O)c1ccc[nH]1 (stereo not drawn) [U-60,908, 9, 18-O--Dipyrrole-2-carbonyl-]	–	–	insoluble	–
COC1CC2C=CC3C4OC2(C(C)=CC(C)C(C(C)O)OC1=O)C3C(O)C(C)C4OC(=O)c1cc2ccccc2[nH]1 (stereo not drawn) [U-61,273, 9-O--Indole-2-carbonyl-]	–	–	insoluble	–
COC1CC2C=CC3C4OC2(C(C)=CC(C)C(C(C)OC(=O)c2ccccc2)OC1=O)C3C(O)C(C)C4O (stereo not drawn) [18-O--benzoyl-, 18-O-benzoylnodusmicin]	–	–	–	zone of inhibition at 1000 µg/mL (S. lutea UC-130; UC130, 16 h, read-out: Agar Diffusion S. lutea UC-130 (inhibition zone)): 24 mm; zone of inhibition at 1000 µg/mL (S. lutea UC-130; UC130, read-out: zone of inhibition, S. lutea): 24 mm
